{"source": "patent US20040014047A1", "about": "“Antisense modulation of LIM domain kinase 1 expression” (Isis Pharmaceuticals Inc., priority 2002, published 2004)", "note": "Strand notation (5' to 3'): a small letter for the sugar, then the base; units joined by * are phosphorothioate-linked, units joined directly phosphodiester-linked; [ ] holds rarer units or linkages, { } end groups; capitals alone tell only the bases. e = 2'-O-(2-methoxyethyl) (MOE); [5mC] = 5-methylcytosine; d = 2'-deoxy (DNA)"}
{"tested_on": "human LIM domain kinase 1 mRNA", "assay": "Antisense inhibition of human LIM domain kinase 1 mRNA levels, quantitative real-time PCR, A549 cells (screen)", "type": "cell-based", "settings": "quantitative real-time PCR, averages from two experiments, screening concentration not given (50 nM to 300 nM used herein)", "procedure": "(§1) When cells reached 70% confluency, they were treated with oligonucleotide. […] Cells were harvested 16-24 hours after oligonucleotide treatment.\n(§2) Vacuum was applied for 1 minute.\n(§3) PCR reagents were obtained from Invitrogen Corporation, (Carlsbad, Calif.).\n(§4) Total RNA is quantified using RiboGreenTM RNA quantification reagent from Molecular Probes.\n(§5) Probes and primers to human LIM domain kinase 1 were designed to hybridize to a human LIM domain kinase 1 sequence, using published sequence information (GenBank accession number D26309.1, incorporated herein as SEQ ID NO:4). For human LIM domain kinase 1 the PCR primers were: forward primer: […] (SEQ ID NO: 5) reverse primer: […] (SEQ ID NO: 6) and the PCR probe was: FAM-[…]-TAMRA (SEQ ID NO: 7) where FAM is the fluorescent dye and TAMRA is the quencher dye.\n(§6) All cytidine residues are 5-methylcytidines. […] Data are averages from two experiments in which A549 cells were treated with the oligonucleotides of the present invention. […] If present, “N.D.” indicates “no data”.", "units": {"% INHIB (inhibition of human LIM domain kinase 1 mRNA levels)": "%"}}
{"substance": "206237 (antisense eG*eT*e[5mC]*e[5mC]*eT*dG*d[5mC]*d[5mC]*d[5mC]*d[5mC]*dA*d[5mC]*dA*dG*dA*e[5mC]*eT*e[5mC]*eA*eG) [compound 206237]", "% INHIB (inhibition of human LIM domain kinase 1 mRNA levels)": 62}
{"substance": "206185 (antisense eG*e[5mC]*e[5mC]*eA*eT*dT*dG*dA*dT*dT*dT*d[5mC]*d[5mC]*dA*dA*eG*eA*eT*e[5mC]*e[5mC]) [compound 206185]", "% INHIB (inhibition of human LIM domain kinase 1 mRNA levels)": 86}
{"substance": "206170 (eG*e[5mC]*eA*eA*e[5mC]*dT*d[5mC]*dG*d[5mC]*dT*dT*d[5mC]*d[5mC]*dT*dT*e[5mC]*e[5mC]*eT*e[5mC]*eT; antisense) [compound 206170]", "% INHIB (inhibition of human LIM domain kinase 1 mRNA levels)": 43}
{"substance": "206213 (antisense e[5mC]*e[5mC]*e[5mC]*eT*eG*dA*dG*dG*d[5mC]*dT*dT*dG*dG*dT*dA*e[5mC]*e[5mC]*eT*eG*e[5mC]) [compound 206213]", "% INHIB (inhibition of human LIM domain kinase 1 mRNA levels)": 14}
{"substance": "206225 (antisense eG*eG*eA*eG*eT*dG*dA*dA*dA*dG*d[5mC]*dA*d[5mC]*d[5mC]*d[5mC]*eA*eG*e[5mC]*eT*eG) [compound 206225]", "% INHIB (inhibition of human LIM domain kinase 1 mRNA levels)": 74}
{"substance": "206201 (antisense eA*eG*eG*eT*eA*dG*dG*d[5mC]*d[5mC]*dA*dT*d[5mC]*d[5mC]*d[5mC]*dT*eG*eA*eT*eG*e[5mC]) [compound 206201]", "% INHIB (inhibition of human LIM domain kinase 1 mRNA levels)": 74}
{"substance": "206199 (antisense eT*eG*eT*e[5mC]*e[5mC]*dA*dT*dG*d[5mC]*dT*d[5mC]*dT*dT*dG*dA*eT*eG*eA*eT*eG) [compound 206199]", "% INHIB (inhibition of human LIM domain kinase 1 mRNA levels)": 68}
{"substance": "206215 (antisense eG*e[5mC]*eA*eG*e[5mC]*dT*dG*d[5mC]*dT*dG*d[5mC]*dT*dG*d[5mC]*dA*eG*e[5mC]*e[5mC]*eG*eT) [compound 206215]", "% INHIB (inhibition of human LIM domain kinase 1 mRNA levels)": 75}
{"substance": "206202 (antisense eG*eT*e[5mC]*eT*e[5mC]*dG*dG*dT*dG*dG*dA*dT*dG*dA*dT*eG*eT*eT*e[5mC]*eA) [compound 206202]", "% INHIB (inhibition of human LIM domain kinase 1 mRNA levels)": 69}
{"substance": "206196 (antisense eA*e[5mC]*e[5mC]*eT*eT*d[5mC]*dA*d[5mC]*d[5mC]*dT*d[5mC]*d[5mC]*dT*dT*dG*eA*eG*eG*eA*eA) [compound 206196]", "% INHIB (inhibition of human LIM domain kinase 1 mRNA levels)": 47}
{"substance": "206231 (antisense eG*e[5mC]*eA*eG*eT*dG*d[5mC]*d[5mC]*d[5mC]*dG*d[5mC]*dT*dG*d[5mC]*dA*eA*eG*eA*eG*e[5mC]) [compound 206231]", "% INHIB (inhibition of human LIM domain kinase 1 mRNA levels)": 76}
{"substance": "206177 (antisense eA*eG*e[5mC]*eT*eT*dG*dG*dA*dG*dT*dG*d[5mC]*dT*d[5mC]*d[5mC]*eA*e[5mC]*e[5mC]*eA*eG) [compound 206177]", "% INHIB (inhibition of human LIM domain kinase 1 mRNA levels)": 86}
{"substance": "206218 (antisense eT*eG*eA*eG*eA*dA*dA*dG*d[5mC]*dT*dT*d[5mC]*dA*d[5mC]*dA*eG*eT*eT*eT*eT) [compound 206218]", "% INHIB (inhibition of human LIM domain kinase 1 mRNA levels)": 43}
{"substance": "206194 (antisense eG*eA*e[5mC]*e[5mC]*e[5mC]*dA*dG*dG*dT*d[5mC]*d[5mC]*dT*dT*dG*d[5mC]*eG*e[5mC]*eT*eG*eG) [compound 206194]", "% INHIB (inhibition of human LIM domain kinase 1 mRNA levels)": 41}
{"substance": "206190 (antisense eG*eA*e[5mC]*eA*eG*dG*dT*dT*dT*d[5mC]*dT*dG*d[5mC]*d[5mC]*dG*eG*eG*e[5mC]*eA*eG) [compound 206190]", "% INHIB (inhibition of human LIM domain kinase 1 mRNA levels)": 88}
{"substance": "206230 (antisense e[5mC]*e[5mC]*eA*eG*eG*dT*dG*dA*dG*dT*dG*dT*dG*d[5mC]*dA*eA*eG*eG*e[5mC]*eA) [compound 206230]", "% INHIB (inhibition of human LIM domain kinase 1 mRNA levels)": 74}
{"substance": "206192 (antisense eA*eG*e[5mC]*eT*e[5mC]*d[5mC]*dT*d[5mC]*dA*dA*dG*dA*d[5mC]*dA*dG*eG*eT*eT*eT*e[5mC]) [compound 206192]", "% INHIB (inhibition of human LIM domain kinase 1 mRNA levels)": 54}
{"substance": "206203 (antisense eT*eT*eG*eT*eG*dG*dG*dA*dG*dT*dT*dG*dA*dG*dG*eT*e[5mC]*eT*e[5mC]*eG) [compound 206203]", "% INHIB (inhibition of human LIM domain kinase 1 mRNA levels)": 55}
{"substance": "206207 (antisense eG*eT*eG*eG*e[5mC]*d[5mC]*d[5mC]*dT*dG*dG*d[5mC]*dT*d[5mC]*dA*dG*eT*e[5mC]*eG*eG*eG) [compound 206207]", "% INHIB (inhibition of human LIM domain kinase 1 mRNA levels)": 80}
{"substance": "206217 (antisense eA*eA*eG*e[5mC]*eT*dT*d[5mC]*dA*d[5mC]*dA*dG*dT*dT*dT*dT*eA*eA*eT*eA*e[5mC]) [compound 206217]", "% INHIB (inhibition of human LIM domain kinase 1 mRNA levels)": 68}
{"substance": "206162 (e[5mC]*eT*eG*e[5mC]*eT*dG*d[5mC]*dA*dG*d[5mC]*d[5mC]*dG*dT*dA*dT*eG*eA*eA*eA*eA; antisense) [compound 206162]", "% INHIB (inhibition of human LIM domain kinase 1 mRNA levels)": 74}
{"substance": "206234 (antisense e[5mC]*eA*eT*eT*e[5mC]*dT*dT*dG*dT*dT*d[5mC]*dT*dG*dG*dG*eA*eA*eG*eG*eT) [compound 206234]", "% INHIB (inhibition of human LIM domain kinase 1 mRNA levels)": 61}
{"substance": "206200 (antisense e[5mC]*eT*eG*eG*e[5mC]*dT*dG*dT*d[5mC]*d[5mC]*dA*dT*dG*d[5mC]*dT*e[5mC]*eT*eT*eG*eA) [compound 206200]", "% INHIB (inhibition of human LIM domain kinase 1 mRNA levels)": 76}
{"substance": "206168 (eT*e[5mC]*eT*e[5mC]*e[5mC]*d[5mC]*dA*dT*dA*d[5mC]*dG*dT*dT*d[5mC]*dT*eT*e[5mC]*e[5mC]*e[5mC]*eT; antisense) [compound 206168]", "% INHIB (inhibition of human LIM domain kinase 1 mRNA levels)": 36}
{"substance": "206197 (antisense eG*e[5mC]*eA*eT*e[5mC]*dG*d[5mC]*dA*dT*dG*dA*d[5mC]*d[5mC]*dT*dT*e[5mC]*eA*e[5mC]*e[5mC]*eT) [compound 206197]", "% INHIB (inhibition of human LIM domain kinase 1 mRNA levels)": 71}
{"substance": "206220 (antisense e[5mC]*eA*eA*eA*eG*dT*dG*d[5mC]*dA*d[5mC]*dT*dG*dA*dG*dA*eA*eA*eG*e[5mC]*eT) [compound 206220]", "% INHIB (inhibition of human LIM domain kinase 1 mRNA levels)": 59}
{"tested_on": "human LIM domain kinase 1 mRNA", "assay": "Antisense inhibition of human LIM domain kinase 1 mRNA levels, quantitative real-time PCR, A549 cells (screen)", "type": "cell-based", "settings": "real-time PCR, bound stated", "procedure": "as §1, §2, §3, §4, §5, §6"}
{"substance": "gcagtgcccgctgcaagagc (eG*e[5mC]*eA*eG*eT*dG*d[5mC]*d[5mC]*d[5mC]*dG*d[5mC]*dT*dG*d[5mC]*dA*eA*eG*eA*eG*e[5mC]; antisense) [ISIS 206231]", "inhibition of human LIM domain kinase 1 expression (text summary of Table 1)": "at least 65%"}
{"substance": "cttcctctcccatacgttct (e[5mC]*eT*eT*e[5mC]*e[5mC]*dT*d[5mC]*dT*d[5mC]*d[5mC]*d[5mC]*dA*dT*dA*d[5mC]*eG*eT*eT*e[5mC]*eT; antisense) [ISIS 206169]", "inhibition of human LIM domain kinase 1 expression (text summary of Table 1)": "at least 65%"}
{"substance": "ctctgggccacggcagagag (e[5mC]*eT*e[5mC]*eT*eG*dG*dG*d[5mC]*d[5mC]*dA*d[5mC]*dG*dG*d[5mC]*dA*eG*eA*eG*eA*eG; antisense) [ISIS 206209]", "inhibition of human LIM domain kinase 1 expression (text summary of Table 1)": "at least 65%"}
{"substance": "ctcagacccttgagttactg (e[5mC]*eT*e[5mC]*eA*eG*dA*d[5mC]*d[5mC]*d[5mC]*dT*dT*dG*dA*dG*dT*eT*eA*e[5mC]*eT*eG; antisense) [ISIS 206227]", "inhibition of human LIM domain kinase 1 expression (text summary of Table 1)": "at least 65%"}
{"substance": "gcagtgcccgcagtacagct (eG*e[5mC]*eA*eG*eT*dG*d[5mC]*d[5mC]*d[5mC]*dG*d[5mC]*dA*dG*dT*dA*e[5mC]*eA*eG*e[5mC]*eT; antisense) [ISIS 206179]", "inhibition of human LIM domain kinase 1 expression (text summary of Table 1)": "at least 65%"}
{"substance": "gctgctgcagccgtatgaaa (eG*e[5mC]*eT*eG*e[5mC]*dT*dG*d[5mC]*dA*dG*d[5mC]*d[5mC]*dG*dT*dA*eT*eG*eA*eA*eA; antisense) [ISIS 206224]", "inhibition of human LIM domain kinase 1 expression (text summary of Table 1)": "at least 65%"}
{"substance": "gtctcggtggatgatgttca (eG*eT*e[5mC]*eT*e[5mC]*dG*dG*dT*dG*dG*dA*dT*dG*dA*dT*eG*eT*eT*e[5mC]*eA; antisense) [ISIS 206202]", "inhibition of human LIM domain kinase 1 expression (text summary of Table 1)": "at least 65%"}
{"substance": "tggatggaattcttcacatc (eT*eG*eG*eA*eT*dG*dG*dA*dA*dT*dT*d[5mC]*dT*dT*d[5mC]*eA*e[5mC]*eA*eT*e[5mC]; antisense) [ISIS 206183]", "inhibition of human LIM domain kinase 1 expression (text summary of Table 1)": "at least 65%"}
{"substance": "gacaggtttctgccgggcag (eG*eA*e[5mC]*eA*eG*dG*dT*dT*dT*d[5mC]*dT*dG*d[5mC]*d[5mC]*dG*eG*eG*e[5mC]*eA*eG; antisense) [ISIS 206190]", "inhibition of human LIM domain kinase 1 expression (text summary of Table 1)": "at least 65%"}
{"substance": "gcagctgctgctgcagccgt (eG*e[5mC]*eA*eG*e[5mC]*dT*dG*d[5mC]*dT*dG*d[5mC]*dT*dG*d[5mC]*dA*eG*e[5mC]*e[5mC]*eG*eT; antisense) [ISIS 206215]", "inhibition of human LIM domain kinase 1 expression (text summary of Table 1)": "at least 65%"}
{"substance": "tcgagggtcagctggagcag (eT*e[5mC]*eG*eA*eG*dG*dG*dT*d[5mC]*dA*dG*d[5mC]*dT*dG*dG*eA*eG*e[5mC]*eA*eG; antisense) [ISIS 206188]", "inhibition of human LIM domain kinase 1 expression (text summary of Table 1)": "at least 65%"}
